Test results published in the NIST ThermoML archive (doi:10.1021/acs.jced.8b00153).
Values joined by “and” are separate entries in the source; they are usually repeats but may differ in a detail not shown here. Identical values can stand only once.

Conditions: for speed of sound / mass density / viscosity / vapor or sublimation pressure: Liquid; for speed of sound: Frequency=3 MHz, Single path-length method; for mass density: Vibrating tube method; for surface tension liquid-gas: Drop volume; for viscosity: Capillary tube (Ostwald / Ubbelohde) method; for vapor or sublimation pressure: Ebulliometric method (Recirculating still)

CCc1ccco1 [2-ethylfuran]
Conditions	mass density	speed of sound [m/s]	viscosity [mPa·s]
313.15 K, 100 kPa	882.52 kg/m3 and 882.49 kg/m3	1129.2	–
313.15 K, 2000 kPa	884.62 kg/m3	–	–
313.15 K, 5000 kPa	887.63 kg/m3	–	–
313.15 K, 7000 kPa	889.75 kg/m3	–	–
313.15 K, 10000 kPa	892.61 kg/m3	–	–
313.15 K, 15000 kPa	897.4 kg/m3	–	–
313.15 K, 20000 kPa	901.8 kg/m3	–	–
313.15 K, 25000 kPa	906.18 kg/m3	–	–
313.15 K, 30000 kPa	910.18 kg/m3	–	–
313.15 K, 35000 kPa	914.06 kg/m3	–	–
313.15 K, 40000 kPa	917.85 kg/m3	–	–
313.15 K, 45000 kPa	921.58 kg/m3	–	–
313.15 K, 50000 kPa	925.04 kg/m3	–	–
313.15 K, 55000 kPa	928.5 kg/m3	–	–
313.15 K, 60000 kPa	931.93 kg/m3	–	–
313.15 K, 65000 kPa	935.06 kg/m3	–	–
315.65 K, 100 kPa	879.73 kg/m3	1118.1	0.4049
318.15 K, 100 kPa	876.92 kg/m3 and 876.88 kg/m3	1107.4	0.3962
318.15 K, 2000 kPa	879.13 kg/m3	–	–
318.15 K, 5000 kPa	882.2 kg/m3	–	–
318.15 K, 7000 kPa	884.37 kg/m3	–	–
318.15 K, 10000 kPa	887.44 kg/m3	–	–
318.15 K, 15000 kPa	892.29 kg/m3	–	–
318.15 K, 20000 kPa	896.91 kg/m3	–	–
318.15 K, 25000 kPa	901.27 kg/m3	–	–
318.15 K, 30000 kPa	905.42 kg/m3	–	–
318.15 K, 35000 kPa	909.5 kg/m3	–	–
318.15 K, 40000 kPa	913.4 kg/m3	–	–
318.15 K, 45000 kPa	917.1 kg/m3	–	–
318.15 K, 50000 kPa	920.67 kg/m3	–	–
318.15 K, 55000 kPa	924.18 kg/m3	–	–
318.15 K, 60000 kPa	927.71 kg/m3	–	–
318.15 K, 65000 kPa	930.91 kg/m3	–	–
320.65 K, 100 kPa	874.11 kg/m3	1096.5	0.3885
323.15 K, 100 kPa	871.29 kg/m3 and 871.23 kg/m3	1085.6	0.3794
323.15 K, 2000 kPa	873.56 kg/m3	–	–
323.15 K, 5000 kPa	876.77 kg/m3	–	–
323.15 K, 7000 kPa	878.96 kg/m3	–	–
323.15 K, 10000 kPa	882.17 kg/m3	–	–
323.15 K, 15000 kPa	887.15 kg/m3	–	–
323.15 K, 20000 kPa	891.93 kg/m3	–	–
323.15 K, 25000 kPa	896.47 kg/m3	–	–
323.15 K, 30000 kPa	900.65 kg/m3	–	–
323.15 K, 35000 kPa	904.8 kg/m3	–	–
323.15 K, 40000 kPa	908.8 kg/m3	–	–
323.15 K, 45000 kPa	912.67 kg/m3	–	–
323.15 K, 50000 kPa	916.35 kg/m3	–	–
323.15 K, 55000 kPa	919.97 kg/m3	–	–
323.15 K, 60000 kPa	923.48 kg/m3	–	–
323.15 K, 65000 kPa	926.81 kg/m3	–	–
325.65 K, 100 kPa	868.46 kg/m3	1074.8	0.3706
328.15 K, 100 kPa	865.62 kg/m3 and 865.59 kg/m3	1063.8	0.3619
328.15 K, 2000 kPa	867.92 kg/m3	–	–
328.15 K, 5000 kPa	871.27 kg/m3	–	–
328.15 K, 7000 kPa	873.57 kg/m3	–	–
328.15 K, 10000 kPa	876.84 kg/m3	–	–
328.15 K, 15000 kPa	882.03 kg/m3	–	–
328.15 K, 20000 kPa	886.97 kg/m3	–	–
328.15 K, 25000 kPa	891.57 kg/m3	–	–
328.15 K, 30000 kPa	895.96 kg/m3	–	–
328.15 K, 35000 kPa	900.23 kg/m3	–	–
328.15 K, 40000 kPa	904.35 kg/m3	–	–
328.15 K, 45000 kPa	908.24 kg/m3	–	–
328.15 K, 50000 kPa	912.04 kg/m3	–	–
328.15 K, 55000 kPa	915.63 kg/m3	–	–
328.15 K, 60000 kPa	919.32 kg/m3	–	–
328.15 K, 65000 kPa	922.64 kg/m3	–	–
330.65 K, 100 kPa	862.76 kg/m3	1053.7	0.3536
333.15 K, 100 kPa	859.9 kg/m3 and 859.9 kg/m3	1042.2	0.3455
333.15 K, 2000 kPa	862.3 kg/m3	–	–
333.15 K, 5000 kPa	865.81 kg/m3	–	–
333.15 K, 7000 kPa	868.2 kg/m3	–	–
333.15 K, 10000 kPa	871.58 kg/m3	–	–
333.15 K, 15000 kPa	876.87 kg/m3	–	–
333.15 K, 20000 kPa	881.93 kg/m3	–	–
333.15 K, 25000 kPa	886.74 kg/m3	–	–
333.15 K, 30000 kPa	891.26 kg/m3	–	–
333.15 K, 35000 kPa	895.59 kg/m3	–	–
333.15 K, 40000 kPa	899.79 kg/m3	–	–
333.15 K, 45000 kPa	903.78 kg/m3	–	–
333.15 K, 50000 kPa	907.66 kg/m3	–	–
333.15 K, 55000 kPa	911.34 kg/m3	–	–
333.15 K, 60000 kPa	915.07 kg/m3	–	–
333.15 K, 65000 kPa	918.6 kg/m3	–	–
335.65 K, 100 kPa	857.02 kg/m3	1032.1	0.3372
338.15 K, 100 kPa	854.13 kg/m3 and 854.07 kg/m3	1020.5	0.33
338.15 K, 2000 kPa	856.63 kg/m3	–	–
338.15 K, 5000 kPa	860.21 kg/m3	–	–
338.15 K, 7000 kPa	862.69 kg/m3	–	–
338.15 K, 10000 kPa	866.19 kg/m3	–	–
338.15 K, 15000 kPa	871.73 kg/m3	–	–
338.15 K, 20000 kPa	876.98 kg/m3	–	–
338.15 K, 25000 kPa	881.86 kg/m3	–	–
338.15 K, 30000 kPa	886.43 kg/m3	–	–
338.15 K, 35000 kPa	890.92 kg/m3	–	–
338.15 K, 40000 kPa	895.2 kg/m3	–	–
338.15 K, 45000 kPa	899.36 kg/m3	–	–
338.15 K, 50000 kPa	903.34 kg/m3	–	–
338.15 K, 55000 kPa	907.07 kg/m3	–	–
338.15 K, 60000 kPa	910.92 kg/m3	–	–
338.15 K, 65000 kPa	914.41 kg/m3	–	–

Conditions	surface tension liquid-gas [mN/m]	vapor or sublimation pressure [kPa]
315.65 K	22.66	–
317.62 K	–	18.64
318.15 K	22.3	–
320.45 K	–	20.98
320.65 K	22.07	–
322.48 K	–	22.8
323.15 K	21.77	–
324.89 K	–	25.18
325.65 K	21.4	–
327.06 K	–	27.46
328.15 K	21.08	–
329.8 K	–	30.6
330.65 K	20.87	–
331.39 K	–	32.49
333.15 K	20.5	–
333.19 K	–	34.85
334.73 K	–	36.94
335.65 K	20.28	–
336.84 K	–	39.92
338.15 K	19.95	–
338.83 K	–	42.91
340.3 K	–	45.25
342.6 K	–	49.13
344.85 K	–	53.18
347.05 K	–	57.4
348.94 K	–	61.22
350.71 K	–	64.98
352.9 K	–	69.89
354.83 K	–	74.51
356.8 K	–	79.34
358.65 K	–	84.17
360.61 K	–	89.59
361.79 K	–	92.94
362.46 K	–	94.88
363.67 K	–	98.45
364.18 K	–	100.08
364.61 K	–	101.33
